Assay results from patent publication US5859037A, “Sulfonylurea-glitazone combinations for diabetes” (Warner-Lambert Company, priority 1997, dated 1999).
Several values for one entry are separate records, joined by “and”; a condition that tells them apart may be missing. Equal entries are not always repeated. Entries after “also recorded” stand apart in the source; their conditions may differ.

Columns and labels:
Assay type in all cases: in vivo, patients
[1] = test system: non-insulin dependent diabetes mellitus (NIDDM); test: Glycemic control (FSG, HbA1c, responders) in 52-week double-blind clinical study
From the text: The method of treating diabetes employing a combination of a sulfonylurea and a glitazone has been established in a long-term controlled clinical evaluation. The study determined the efficacy and safety of troglitazone alone and in combination with the sulfonylurea glyburide for the treatment of non-insulin dependent diabetes mellitus (NIDDM). This study targeted the segment of the NIDDM population in which the disease state has progressed to a point where maximum doses of sulfonylureas no longer produce adequate glycemic control. […] Since the unstimulated (absence of sulfonylurea) insulin secretory capacity of the beta cells is very low in this population, reversing insulin resistance alone would be of partial benefit. Therefore, maintaining a level of stimulated insulin secretion with a sulfonylurea while adding troglitazone to improve insulin sensitivity could provide a level of glycemic control unattainable by either medication alone. […] Long-term safety was also an objective of this study, assessed by adverse events and clinical laboratory data. This was a 12-month, double-blind, randomized, parallel-group, active-control, multicenter study design (FIG. 1). […] The primary efficacy parameters included endpoints related to glucose homeostasis: FSG and HbA1c. The change from baseline in these parameters at Week 52 compared to active control (glyburide) was the primary measure of efficacy. For patients terminating early from the study, their last observation was carried forward (LOCF) to Week 52. A decrease in these parameters was indicative of an improvement in glycemic control. Efficacy analysis was performed on 2 patient populations, intent-to-treat and completers. […] Patients withdrawing from the study before Week 52 were included in the analysis using the LOCF procedure; the last measurement on treatment was substituted for the missing Week 52 measurement. The intent-to-treat patient sample was the primary sample for assessing efficacy. Completers comprised patients in the intent-to-treat sample who completed Week 52. The analysis of change from baseline to Week 52 was performed using analysis of covariance (ANCOVA). The primary model included effects due to treatment and center and baseline as covariate. Treatment-by-baseline and treatment-by-center interactions were also examined in supplemental models. For the primary comparisons of glyburide versus each combination, step-down tests for linear trend in dose response were performed based on the primary model. For the remaining primary pairwise comparisons of glyburide versus each monotherapy, t-tests were performed using the MSE from the analysis of covariance (with a Bonferroni-Holm adjustment). For all comparisons with glyburide, 95 confidence intervals are provided using Dunnett's test. […] For each patient, the baseline measurement for a given parameter was defined as the measurement at Week 0. […] The frequency distribution (number and percentage) of responders were provided by treatment group and visit. For the set of primary treatment comparisons concerning glyburide versus combination therapy, step-down comparisons of responders in each treatment group versus the glyburide group were performed by sequential application of the Cochran-Mantel-Haenszel (CMH) test for linear trend with study centers as strata. […] The CMH test for general association were also used to perform the secondary treatment comparisons as supplemental analysis.

[2] = Body weight in clinical study; details: Month 12; for Body weight, Adjusted Mean Change From Baseline (SE): ITT; for mean decrease in body weight from baseline: monotherapy (troglitazone: range over doses)
From the text: This was a 12-month, double-blind, randomized, parallel-group, active-control, multicenter study design (FIG. 1). […] Patients were instructed to fast overnight prior to visits requiring specimen collection.

[3] = Safety: adverse events and clinical laboratory measurements
Description: A complete physical examination and ECG were performed during screening and at the end of the study. Clinical laboratory parameters and vital signs including blood pressure were monitored throughout the study for safety reasons. Adverse events were recorded during clinic visits and evaluated by the investigator for intensity and relationship to study drug. Reduction in the daily dose of micronized glyburide could occur in cases of documented hypoglycemia.
All patients randomized to treatment were included in all safety evaluations.
Hypoglycemia, defined as an FSG <50 mg/dL (verified laboratory value), was to be recorded as an adverse event.
Adverse events that were treatment emergent (not present at baseline) are summarized in the following section using a modified COSTART dictionary. If, however, an adverse event present at baseline increased in intensity or frequency during treatment, the event was included in the summaries. Each patient reporting an adverse event was counted only once for that event regardless of the number of times the adverse event was reported. Associated adverse events were those considered by the investigator to be possibly, probably, or definitely related to study therapy.
Baseline clinical laboratory parameters were compared with values at the end of the study (last visit) to identify any abnormal trends. The percent of patients with increases or decreases in laboratory values were calculated based on the number of patients at risk for changes outside of the reference range; i.e., patients with low or high values at baseline were not considered at risk for a decrease or increase, respectively.
Laboratory results were then reviewed for these particular patients to determine which patients actually had clinically important changes in a given laboratory parameter.

[4] = test system: non-insulin dependent diabetes mellitus (NIDDM); test: Patient disposition (withdrawal, completion)
From the text: This was a 12-month, double-blind, randomized, parallel-group, active-control, multicenter study design (FIG. 1). […] Patients could withdraw voluntarily at any time during the study or be withdrawn by the investigator because of significant adverse events or deterioration in health, poor compliance, pregnancy, or prolonged symptomatic hyperglycemia or persistent worsening or failure to improve glycemic control as monitored by FSG.

[5] = Completers, Week 52, troglitazone 200 mg, or 200 mg/12 mg in combination
[6] = Completers, Week 52, troglitazone 200 mg, or 200 mg/12 mg in combination, *p ≤ 0.05, **p ≤ 0.0001
[7] = Completers, Week 52, troglitazone 400 mg, or 400 mg/12 mg in combination
[8] = Completers, Week 52, troglitazone 600 mg, or 600 mg/12 mg in combination
[9] = ITT, Week 52, troglitazone 200 mg, or 200/12 mg in combination, *p ≤ 0.001 vs glyburide
[10] = ITT, Week 52, troglitazone 400 mg, or 400 mg/12 mg in combination, *p ≤ 0.001, **p ≤ 0.0001
[11] = ITT, Week 52, troglitazone 400 mg, or 400/12 mg in combination, *p ≤ 0.001 vs glyburide
[12] = ITT, Week 52, troglitazone 600 mg, or 600 mg/12 mg in combination, *p ≤ 0.001, **p ≤ 0.0001
[13] = ITT, Week 52, troglitazone 600 mg, or 600/12 mg in combination, *p ≤ 0.001 vs glyburide
[14] = troglitazone 200 mg, or 200 mg/12 mg in combination
[15] = troglitazone 400 mg, or 400 mg/12 mg in combination
[16] = troglitazone 600 mg, or 600 mg/12 mg in combination
[17] = Completers, Week 52, glyburide monotherapy (active control)
[18] = ITT, Week 52, glyburide (active control)

Cc1c(C)c2c(c(C)c1O)CCC(C)(COc1ccc(CC3SC(=O)NC3=O)cc1)O2 (centres unmarked) [Troglitazone]
Fasting Serum Glucose, Adjusted Mean Change From Baseline (SE) [1, 5]: 13.4 (12.0) mg/dL
Hemoglobin A1c, Adjusted Mean Change From Baseline (SE) [1, 5]: 0.55 (0.38) %
Fasting Serum Glucose, Adjusted Mean Difference From Glyburide Monotherapy (SE) [1, 6]: 0.3 (14.6) mg/dL
Hemoglobin A1c, Adjusted Mean Difference From Glyburide Monotherapy (SE) [1, 6]: -0.23 (0.46) %
Fasting Serum Glucose, Adjusted Mean Change From Baseline (SE) [1, 7]: -20.5 (9.4) mg/dL
Hemoglobin A1c, Adjusted Mean Change From Baseline (SE) [1, 7]: -0.25 (0.29) %
Fasting Serum Glucose, Adjusted Mean Change From Baseline (SE) [1, 8]: -11.7 (9.8) mg/dL
Hemoglobin A1c, Adjusted Mean Change From Baseline (SE) [1, 8]: -0.26 (0.30) %
Fasting Serum Glucose, Adjusted Mean Difference From Glyburide Monotherapy (SE) ([1]; Completers, Week 52, troglitazone 600 mg, or 600 mg/12 mg in combination, *p ≤ 0.05, **p ≤ 0.0001): -24.8 (12.6) mg/dL
Fasting Serum Glucose, Adjusted Mean Change From Baseline (SE) ([1]; ITT, Week 52 (Month 12), troglitazone 200 mg, or 200 mg/12 mg in combination): 42.4 (7.0) mg/dL
Fasting Serum Glucose, Adjusted Mean Change From Baseline (SE) ([1]; ITT, Week 52 (Month 12), troglitazone 400 mg, or 400 mg/12 mg in combination): 20.6 (7.0) mg/dL
Fasting Serum Glucose, Adjusted Mean Change From Baseline (SE) ([1]; ITT, Week 52 (Month 12), troglitazone 600 mg, or 600 mg/12 mg in combination): 11.1 (7.1) mg/dL
FSG versus glyburide (result in words) ([1]; ITT, Week 52, 400 and 600 mg troglitazone monotherapy): these decreases were not significant
Hemoglobin A1c, Adjusted Mean Change From Baseline (SE) ([1]; ITT, Week 52, troglitazone 200 mg, or 200 mg/12 mg in combination): 1.92 (0.20) %
Fasting Serum Glucose, Adjusted Mean Difference From Glyburide Monotherapy (SE) ([1]; ITT, Week 52, troglitazone 200 mg, or 200 mg/12 mg in combination, *p ≤ 0.001, **p ≤ 0.0001): 19.6 (9.7) mg/dL
Hemoglobin A1c, Adjusted Mean Change From Baseline (SE) ([1]; ITT, Week 52, troglitazone 200 mg, or 200 mg/12 mg in combination, listed as troglitazone): 1.92%
≥30 mg/dL Reduction in FSG, Responders, N (%) [1, 9]: 11 (14) N (%)
≥1% Reduction in HbA1c, Responders, N (%) [1, 9]: 3 (4) N (%)
Hemoglobin A1c, Adjusted Mean Change From Baseline (SE) ([1]; ITT, Week 52, troglitazone 400 mg, or 400 mg/12 mg in combination): 0.85 (0.20) %
Fasting Serum Glucose, Adjusted Mean Difference From Glyburide Monotherapy (SE) [1, 10]: -2.2 (9.7) mg/dL
Hemoglobin A1c, Adjusted Mean Difference From Glyburide Monotherapy (SE) [1, 10]: -0.05 (0.28) %
≥30 mg/dL Reduction in FSG, Responders, N (%) [1, 11]: 20 (26) N (%)
≥1% Reduction in HbA1c, Responders, N (%) [1, 11]: 13 (17) N (%)
Hemoglobin A1c, Adjusted Mean Change From Baseline (SE) ([1]; ITT, Week 52, troglitazone 600 mg, or 600 mg/12 mg in combination): 0.93 (0.20) %
Fasting Serum Glucose, Adjusted Mean Difference From Glyburide Monotherapy (SE) [1, 12]: -11.6 (9.7) mg/dL
Hemoglobin A1c, Adjusted Mean Difference From Glyburide Monotherapy (SE) [1, 12]: 0.03 (0.28) %
≥30 mg/dL Reduction in FSG, Responders, N (%) [1, 13]: 18 (24) N (%)
≥1% Reduction in HbA1c, Responders, N (%) [1, 13]: 8 (11) N (%)
HbA1c versus glyburide monotherapy (result in words) ([1]; completers, 400 and 600 mg troglitazone monotherapy, p ≤0.05): HbA1c decreased significantly (p ≤0.05) compared with glyburide monotherapy
Body weight, Adjusted Mean Change From Baseline (SE) ([2]; troglitazone 200 mg, or 200/12 mg in combination): -6.9 lbs
Body weight, Adjusted Mean Change From Baseline (SE) ([2]; troglitazone 400 mg, or 400/12 mg in combination): -3.9 lbs
Body weight, Adjusted Mean Change From Baseline (SE) ([2]; troglitazone 600 mg, or 600/12 mg in combination): -0.8 lbs
mean decrease in body weight from baseline [2]: 1 to 7 lbs
patients with mildly elevated liver enzymes (<3×upper normal limit) at end of study ([3]; 200 mg monotherapy): one
adverse event profile versus glyburide monotherapy (result in words) ([3]; human, in vivo): Most adverse events occurred at the lower incidence in patients treated with troglitazone monotherapy compared with the patients treated with glyburide monotherapy
hematological parameters (result in words) ([3]; human, in vivo): no patient experienced clinically important decreases in any hematological parameter that can be directly attributable to troglitazone
patients with adverse events ([3]; overall, all doses): 70%
patients with mildly transient decreases in hemoglobin/hematocrit which returned to baseline ([3]; remaining on drug, mono: two on 400 mg, one on 600 mg, combination: three on 400 mg/12 mg, one on 600 mg/12 mg): 3 patients
tolerability (result in words) ([3]; throughout the study): well-tolerated throughout the study; also recorded: well-tolerated during the study
withdrawal for lack of efficacy ([4]; 200 mg troglitazone): ~60% and 55%
Withdrawn, Adverse Event, Number (%) of Patients [4, 14]: 6 (7.7) Number (%) of Patients
Withdrawn, Lack of Efficacy, Number (%) of Patients [4, 14]: 43 (55.1) Number (%) of Patients
Withdrawn, Adverse Event, Number (%) of Patients [4, 15]: 7 (8.6) Number (%) of Patients
Withdrawn, Lack of Efficacy, Number (%) of Patients [4, 15]: 32 (39.5) Number (%) of Patients
Withdrawn, Adverse Event, Number (%) of Patients [4, 16]: 6 (7.7) Number (%) of Patients
Withdrawn, Lack of Efficacy, Number (%) of Patients [4, 16]: 34 (43.6) Number (%) of Patients

COc1ccc(Cl)cc1C(=O)NCCc1ccc(S(=O)(=O)NC(=O)NC2CCCCC2)cc1 [Glyburide]
Fasting Serum Glucose, Adjusted Mean Change From Baseline (SE) [1, 17]: 13.1 (8.6) mg/dL
Hemoglobin A1c, Adjusted Mean Change From Baseline (SE) [1, 17]: 0.78 (0.27) %
Fasting Serum Glucose, Adjusted Mean Change From Baseline (SE) ([1]; ITT, Week 52 (Month 12), glyburide monotherapy (active control)): 22.7 (6.9) mg/dL
≥30 mg/dL Reduction in FSG, Responders, N (%) [1, 18]: 10 (13) N (%)
≥1% Reduction in HbA1c, Responders, N (%) [1, 18]: 4 (5) N (%)
Hemoglobin A1c, Adjusted Mean Change From Baseline (SE) ([1]; ITT, Week 52, glyburide monotherapy (active control)): 0.90 (0.20) %
Hemoglobin A1c, Adjusted Mean Change From Baseline (SE) ([1]; ITT, Week 52, glyburide monotherapy (active control), listed as glyburide): 0.90%
patients with HbA1c of ≤7% ([1]; Week 52, glyburide monotherapy): 1%
patients with HbA1c of ≤8% ([1]; end of study, glyburide (active control)): 10%
Body weight, Adjusted Mean Change From Baseline (SE) ([2]; glyburide (active control)): -1.3 lbs
mean decrease in body weight from baseline [2]: 1 lbs
associated adverse events, incidence ([3]; overall, all doses): 10%
patients with adverse events ([3]; overall, all doses): 90%
Withdrawn, Adverse Event, Number (%) of Patients ([4]; glyburide monotherapy): 6 (7.6) Number (%) of Patients
Withdrawn, Lack of Efficacy, Number (%) of Patients ([4]; glyburide monotherapy): 20 (25.3) Number (%) of Patients
withdrawal for lack of efficacy ([4]; glyburide monotherapy): Twenty-five
